Test system: red blood cell
Experiment: red blood cell (RBC) lysis assay
Source text: The degradation products were obtained by dissolving polyacetal 22 in phosphate buffered saline (PBS), adjusting the pH to 1–2 by the addition of HCl to allow the polyacetal to degrade, then adding a small amount of NaOH to readjust the pH to 7.4.

Substance: Dextran
- red blood cell (RBC) lysis: did not display RBC lysis
